Among the data in the SangsterLogP compilation are logD values, retold here.

Each structure is given as a SMILES string.

The nature of this data set: method code SF-HPLC, from DOI: 10.1023/a:1015933504191, PMID: 2122435. As to conditions: pH 7.4.
In turn, `CCCCCCCCOC(=O)n1cnc(C[C@H](NC(=O)[C@@H]2CCC(=O)N2)C(=O)N2CCC[C@H]2C(N)=O)c1` had a logD of 1.88.
`CC(C)OC(=O)n1cnc(C[C@H](NC(=O)[C@@H]2CCC(=O)N2)C(=O)N2CCC[C@H]2C(N)=O)c1`: the logD was -0.8.
In the case of `COC(=O)n1cnc(C[C@H](NC(=O)[C@@H]2CCC(=O)N2)C(=O)N2CCC[C@H]2C(N)=O)c1` it was -1.88.
On to `CC(C)COC(=O)n1cnc(C[C@H](NC(=O)[C@@H]2CCC(=O)N2)C(=O)N2CCC[C@H]2C(N)=O)c1`, for which the logD is -0.44.
As for `CCCCOC(=O)n1cnc(C[C@H](NC(=O)[C@@H]2CCC(=O)N2)C(=O)N2CCC[C@H]2C(N)=O)c1`, the figure is -0.47.
In the case of `CCC(CC)OC(=O)n1cnc(C[C@H](NC(=O)[C@@H]2CCC(=O)N2)C(=O)N2CCC[C@H]2C(N)=O)c1` it was 0.2.
In turn, `CCOC(=O)n1cnc(C[C@H](NC(=O)[C@@H]2CCC(=O)N2)C(=O)N2CCC[C@H]2C(N)=O)c1` gave a logD of -1.3.
In the case of `NC(=O)[C@@H]1CCCN1C(=O)[C@H](Cc1cn(C(=O)OC2CCCCC2)cn1)NC(=O)[C@@H]1CCC(=O)N1` it was 0.6; in that of `NC(=O)[C@@H]1CCCN1C(=O)[C@H](Cc1cn(C(=O)OCc2ccccc2)cn1)NC(=O)[C@@H]1CCC(=O)N1`, -0.11.
In the case of `CCCCCCOC(=O)n1cnc(C[C@H](NC(=O)[C@@H]2CCC(=O)N2)C(=O)N2CCC[C@H]2C(N)=O)c1` it was 0.71; in that of `CCCC(CCC)OC(=O)n1cnc(C[C@H](NC(=O)[C@@H]2CCC(=O)N2)C(=O)N2CCC[C@H]2C(N)=O)c1`, 1.2; in that of `CCCCC(CC)COC(=O)n1cnc(C[C@H](NC(=O)[C@@H]2CCC(=O)N2)C(=O)N2CCC[C@H]2C(N)=O)c1` (some centres not stated), 1.82.
